The results in this text go back to patent EP0571390B1, “THE DELAY, PREVENTION AND/OR REVERSAL OF CELL SENESCENCE” (priority 1990, dated 1992).

The test system of assay [1] is MRC-5 cells. As to the kind of experiment: Longevity experiment, MRC-5 cells grown continuously in medium supplemented with carnosine. It is filed as cell-based, human. As to conditions: for longevity: continuous, controls ceased growth at 57 and 61 PDs. As to the method: (§1) Cells were grown in Dulbecco's modification of Eagles' Minimal Essential Medium, with 10% fetal calf serum. When cells became confluent and ceased division, they were harvested with trypsin - versene, and dispersed to form a suspension of single cells which was counted with a Coulter Counter. Depending on the cell yield the culture was split in a ratio of 1:2, 1:4, or 1:8. These split ratios correspond approximately to one, two or three cell population doublings when the new cultures become confluent. The exact number of population doublings is calculated from the cell yield at each sub-culture.
MRC-5 is a very well characterised fibroblast strain derived from foetal lung tissue. Early passage cultures were obtained from the National Institute for Biological Standards and Control, South Mimms, Herts, U.K. Longevity experiments were set up using normal medium and medium supplemented with 20 and 30mM carnosine (medium was the same as for RR cells above). […] The control cells became senescent at the expected time, namely after about 50 - 55 PDs, and they ceased growth at 57 and 61 PDs. […] It should be noted that the PD level is a logarithmic measure of growth, so an increase of 10 PDs represents an increase in cell mass of 2^10, or x 1,000.

Assay [2] concerns RR cells (human foreskin fibroblasts). The experiment in a line: Growth and lifespan of RR cells passaged in medium with carnosine. It is filed as cell-based. As to conditions: for fibroblast morphology: after many population doublings; for time still growing: continuous. The procedure:
as §1
Initially, human foreskin fibroblasts were obtained from Dr Roger Reddel (Children's Medical Research Foundation) at passage 5, flasks were set up with differing concentrations of carnosine (10mM, 20mM, 30mM and 50mM) together with control cultures. Each of the cultures were passaged in the same medium.

Assay [3] has as its system MRC-5 cells. The experiment in a line: Transfer of senescent MRC-5 cells from normal medium to carnosine medium at PD level 55. It is filed as cell-based, human. The procedure:
as §1
Remarkably, these cells are continuing to grow after 400 days (Figure 8), whereas cells grown continuously in carnosine died out after 139 days. Thus it appears that transfer of senescent cells to carnosine can reverse the senescent phenotype and allow extended growth of cells with a near normal morphology (Figures 10, 11 and 12).

The mark [4] stands for this setting: transferred at PD level 55 to 20mM carnosine.
[5] abbreviates: transferred at PD level 55 to 30mM carnosine.

For the compound `NCCC(=O)N[C@@H](Cc1c[nH]cn1)C(=O)O` [carnosine, β-alanyl-L-histidine], the “PD level of cells growing continuously” value in the assay on MRC-5 cells [1] (20mM carnosine (Figure 7)) is on record as 67 PD. The “growth rate in the initial stage” value with MRC-5 cells [1] (20mM carnosine versus normal medium) and with MRC-5 cells [1] (30mM carnosine versus normal medium) was “little difference in growth rate” in each case. The longevity entry with MRC-5 cells [1] (20mM carnosine) and with MRC-5 cells [1] (30mM carnosine) was “very significantly increased longevity” each time. In addition, the “number of cells per flask” value with MRC-5 cells [1] (as the end of the culture lifespan approaches) was “significantly increases the number of cells per flask”. Besides, the “morphological features of senescence” value in the assay on MRC-5 cells [1] (carnosine medium, Figure 7 compared with Figure 6) is listed as “delayed the normal morphological features of senescence”. Moreover, in the assay on MRC-5 cells [1] (cells grown continuously in carnosine), the “time until cells died out” value was determined as 139 days. In addition, the growth rate result is listed as “grew as rapidly as control cultures” in assay [2] (10mM carnosine added to standard medium, versus control cultures); “grew as rapidly as control cultures” in assay [2] (20mM carnosine added to standard medium, versus control cultures); “some reduction in growth rate” in assay [2] (30mM carnosine); “a great reduction” in assay [2] (50mM carnosine). For the same compound, the fibroblast morphology entry in assay [2] (30mM carnosine) and in assay [2] (50mM carnosine) was “retained their characteristic fibroblast morphology” in each case. Also, the time still growing in assay [2] (30mM carnosine) and in assay [2] (50mM carnosine) was above 500 days each time. Also, the “PDs reached after transfer” value is 64 PDs in the assay with MRC-5 cells [3] (20mM carnosine, 146 days after transfer (Figure 11)) and 63 PDs in the assay with MRC-5 cells [3] (30mM carnosine, 146 days after transfer (Figure 12)). Further, in the assay with MRC-5 cells [3] (cells transferred from normal medium to 30mM carnosine medium (Figure 9)), the “effect in increasing cell yield” value is listed as “particularly striking”. Also, the phenotype after transfer entry in the assay with MRC-5 cells [3] (setting [4]) was “continued to grow slowly, but with a rejuvenated phenotype”; with MRC-5 cells [3] (setting [5]), “continued to grow slowly, but with a rejuvenated phenotype”. In addition, the “time continuing to grow” value with MRC-5 cells [3] (setting [4]) and in the assay on MRC-5 cells [3] (setting [5]) was above 400 days in each case.
